Laboratory results from patent US10800791B2, “Triazole ACC inhibitors and uses thereof” (Gilead Apollo, LLC, priority 2015, dated 2020).
In brackets after ≈: the same amount, converted by molar mass. Like-named read-outs stand apart in the source and are kept apart here.

Tests used:
human (hACC2) = human (hACC2) (Homo sapiens, UniProt O00763); assay: In vitro ACC inhibition assay (ADP-Glo), hACC2; assay type: biochemical; conditions: 5 nM ACC2, 20 μM ATP, 20 μM acetyl-CoA
Experimental: The detailed procedure is as follows. […] 10 μL ADP glo reagent was added. […] 20 μL kinase detection reagent was added.

C. albicans = assay: Antifungal Activity Assay (broth microtiter MIC), C. albicans; assay type: cell-based, Candida albicans; conditions: Candida albicans, ATCC90028, 48 h
Procedure, shortened: (§1)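 Colonies from 24 h Sabouraud dextrose agar plates (35° C) are suspended in RPMI 1640+MOPS and diluted to give 2.5×10^3 CFU/mL in the wells. Plates are set up per CLSI M27-A3. Visual MIC is recorded at 48 h.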

C. krusei = assay: Antifungal Activity Assay (broth microtiter MIC), C. krusei; assay type: cell-based, Candida krusei; conditions: Pichia kudriavzevii, ATCC6258, 48 h
Procedure, shortened: as §1

C. parapsilosis = assay: Antifungal Activity Assay (broth microtiter MIC), C. parapsilosis; assay type: cell-based, Candida parapsilosis; conditions: Lodderomyces parapsilosis, ATCC22019, 48 h
Procedure, shortened: as §1

fungal (fACC2) = fungal (fACC2) (UniProt Q00955); conditions: read-out: fACC2 (in vitro ACC2 Inhibition Assay, IC50), ADP-Glo, 5 nM ACC2, 20 μM ATP, 20 μM acetyl-CoA
[1] = Table 3b (additional results), ATCC 90028, 3 replicates, MIC recorded at 48 h, read-out: MIC, C. albicans ATCC 90028
[2] = Table 3b (additional results), ATCC 6258, 3 replicates, MIC recorded at 48 h, read-out: MIC, C. krusei ATCC 6258
[3] = Table 3b (additional results), ATCC 22019, 3 replicates, MIC recorded at 48 h, read-out: MIC, C. parapsilosis ATCC 22019
[4] = read-out: MIC, C. albicans ATCC 90028, Table 3b (additional results), 3 replicates, MIC recorded at 48 h
[5] = read-out: MIC, C. krusei ATCC 6258, Table 3b (additional results), 3 replicates, MIC recorded at 48 h
[6] = read-out: MIC, C. parapsilosis ATCC 22019, Table 3b (additional results), 3 replicates, MIC recorded at 48 h

fungal (fACC2), sequence (Q00955 whole entry): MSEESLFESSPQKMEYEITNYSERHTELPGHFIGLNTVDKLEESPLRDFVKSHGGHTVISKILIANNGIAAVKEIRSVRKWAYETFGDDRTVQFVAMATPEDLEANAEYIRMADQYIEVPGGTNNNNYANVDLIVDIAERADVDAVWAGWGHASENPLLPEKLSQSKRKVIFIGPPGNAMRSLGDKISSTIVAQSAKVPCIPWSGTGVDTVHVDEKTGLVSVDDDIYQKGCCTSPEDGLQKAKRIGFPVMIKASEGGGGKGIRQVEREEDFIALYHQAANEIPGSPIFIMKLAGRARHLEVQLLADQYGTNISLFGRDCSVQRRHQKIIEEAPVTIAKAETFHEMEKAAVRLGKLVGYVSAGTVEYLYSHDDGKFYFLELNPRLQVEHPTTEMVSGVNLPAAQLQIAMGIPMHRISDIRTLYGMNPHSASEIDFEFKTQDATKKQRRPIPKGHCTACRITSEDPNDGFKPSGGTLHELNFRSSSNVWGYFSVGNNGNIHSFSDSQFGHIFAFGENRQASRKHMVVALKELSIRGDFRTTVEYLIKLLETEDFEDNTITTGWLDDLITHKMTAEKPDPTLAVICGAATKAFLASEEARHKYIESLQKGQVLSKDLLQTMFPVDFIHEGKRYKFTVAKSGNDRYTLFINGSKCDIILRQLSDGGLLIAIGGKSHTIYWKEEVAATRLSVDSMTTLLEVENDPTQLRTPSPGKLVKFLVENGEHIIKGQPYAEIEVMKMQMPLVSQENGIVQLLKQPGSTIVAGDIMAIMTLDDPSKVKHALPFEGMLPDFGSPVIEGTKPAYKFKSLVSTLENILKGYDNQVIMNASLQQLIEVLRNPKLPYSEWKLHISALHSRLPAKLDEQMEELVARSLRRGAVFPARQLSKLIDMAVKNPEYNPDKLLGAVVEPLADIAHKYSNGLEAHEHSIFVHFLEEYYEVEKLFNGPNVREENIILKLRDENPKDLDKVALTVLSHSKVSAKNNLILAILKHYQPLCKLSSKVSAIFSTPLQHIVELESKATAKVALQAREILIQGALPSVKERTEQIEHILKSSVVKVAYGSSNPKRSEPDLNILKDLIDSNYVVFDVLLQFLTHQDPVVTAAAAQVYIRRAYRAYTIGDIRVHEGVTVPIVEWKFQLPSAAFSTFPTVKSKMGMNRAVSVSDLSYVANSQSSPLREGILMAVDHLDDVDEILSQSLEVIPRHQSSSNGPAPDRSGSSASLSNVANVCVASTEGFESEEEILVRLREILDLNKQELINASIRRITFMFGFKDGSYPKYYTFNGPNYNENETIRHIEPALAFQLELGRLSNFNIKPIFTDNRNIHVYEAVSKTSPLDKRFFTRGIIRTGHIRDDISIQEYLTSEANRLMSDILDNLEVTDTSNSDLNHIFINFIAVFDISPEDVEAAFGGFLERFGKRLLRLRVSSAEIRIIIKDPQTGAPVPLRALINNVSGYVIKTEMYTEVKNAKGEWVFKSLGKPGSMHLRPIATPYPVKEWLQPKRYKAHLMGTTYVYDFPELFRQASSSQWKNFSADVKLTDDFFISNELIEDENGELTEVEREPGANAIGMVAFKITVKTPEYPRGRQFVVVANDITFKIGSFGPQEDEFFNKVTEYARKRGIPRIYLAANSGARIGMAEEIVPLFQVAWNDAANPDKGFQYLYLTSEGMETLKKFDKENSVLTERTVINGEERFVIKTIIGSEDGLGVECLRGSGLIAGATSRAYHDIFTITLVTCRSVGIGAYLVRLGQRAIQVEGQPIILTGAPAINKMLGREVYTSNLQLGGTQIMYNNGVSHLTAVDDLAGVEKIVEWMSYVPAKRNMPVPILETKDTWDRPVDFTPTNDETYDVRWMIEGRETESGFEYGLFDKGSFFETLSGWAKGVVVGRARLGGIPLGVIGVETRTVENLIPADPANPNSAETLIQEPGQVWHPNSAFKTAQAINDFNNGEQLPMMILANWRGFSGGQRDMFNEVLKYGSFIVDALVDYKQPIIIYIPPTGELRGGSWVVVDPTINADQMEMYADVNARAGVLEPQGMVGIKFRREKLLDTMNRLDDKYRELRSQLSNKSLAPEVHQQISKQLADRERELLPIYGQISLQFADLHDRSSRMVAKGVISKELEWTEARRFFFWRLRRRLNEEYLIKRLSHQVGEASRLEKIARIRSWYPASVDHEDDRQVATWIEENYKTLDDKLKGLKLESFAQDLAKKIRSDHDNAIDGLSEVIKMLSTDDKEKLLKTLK
human (hACC2), sequence (O00763 whole entry): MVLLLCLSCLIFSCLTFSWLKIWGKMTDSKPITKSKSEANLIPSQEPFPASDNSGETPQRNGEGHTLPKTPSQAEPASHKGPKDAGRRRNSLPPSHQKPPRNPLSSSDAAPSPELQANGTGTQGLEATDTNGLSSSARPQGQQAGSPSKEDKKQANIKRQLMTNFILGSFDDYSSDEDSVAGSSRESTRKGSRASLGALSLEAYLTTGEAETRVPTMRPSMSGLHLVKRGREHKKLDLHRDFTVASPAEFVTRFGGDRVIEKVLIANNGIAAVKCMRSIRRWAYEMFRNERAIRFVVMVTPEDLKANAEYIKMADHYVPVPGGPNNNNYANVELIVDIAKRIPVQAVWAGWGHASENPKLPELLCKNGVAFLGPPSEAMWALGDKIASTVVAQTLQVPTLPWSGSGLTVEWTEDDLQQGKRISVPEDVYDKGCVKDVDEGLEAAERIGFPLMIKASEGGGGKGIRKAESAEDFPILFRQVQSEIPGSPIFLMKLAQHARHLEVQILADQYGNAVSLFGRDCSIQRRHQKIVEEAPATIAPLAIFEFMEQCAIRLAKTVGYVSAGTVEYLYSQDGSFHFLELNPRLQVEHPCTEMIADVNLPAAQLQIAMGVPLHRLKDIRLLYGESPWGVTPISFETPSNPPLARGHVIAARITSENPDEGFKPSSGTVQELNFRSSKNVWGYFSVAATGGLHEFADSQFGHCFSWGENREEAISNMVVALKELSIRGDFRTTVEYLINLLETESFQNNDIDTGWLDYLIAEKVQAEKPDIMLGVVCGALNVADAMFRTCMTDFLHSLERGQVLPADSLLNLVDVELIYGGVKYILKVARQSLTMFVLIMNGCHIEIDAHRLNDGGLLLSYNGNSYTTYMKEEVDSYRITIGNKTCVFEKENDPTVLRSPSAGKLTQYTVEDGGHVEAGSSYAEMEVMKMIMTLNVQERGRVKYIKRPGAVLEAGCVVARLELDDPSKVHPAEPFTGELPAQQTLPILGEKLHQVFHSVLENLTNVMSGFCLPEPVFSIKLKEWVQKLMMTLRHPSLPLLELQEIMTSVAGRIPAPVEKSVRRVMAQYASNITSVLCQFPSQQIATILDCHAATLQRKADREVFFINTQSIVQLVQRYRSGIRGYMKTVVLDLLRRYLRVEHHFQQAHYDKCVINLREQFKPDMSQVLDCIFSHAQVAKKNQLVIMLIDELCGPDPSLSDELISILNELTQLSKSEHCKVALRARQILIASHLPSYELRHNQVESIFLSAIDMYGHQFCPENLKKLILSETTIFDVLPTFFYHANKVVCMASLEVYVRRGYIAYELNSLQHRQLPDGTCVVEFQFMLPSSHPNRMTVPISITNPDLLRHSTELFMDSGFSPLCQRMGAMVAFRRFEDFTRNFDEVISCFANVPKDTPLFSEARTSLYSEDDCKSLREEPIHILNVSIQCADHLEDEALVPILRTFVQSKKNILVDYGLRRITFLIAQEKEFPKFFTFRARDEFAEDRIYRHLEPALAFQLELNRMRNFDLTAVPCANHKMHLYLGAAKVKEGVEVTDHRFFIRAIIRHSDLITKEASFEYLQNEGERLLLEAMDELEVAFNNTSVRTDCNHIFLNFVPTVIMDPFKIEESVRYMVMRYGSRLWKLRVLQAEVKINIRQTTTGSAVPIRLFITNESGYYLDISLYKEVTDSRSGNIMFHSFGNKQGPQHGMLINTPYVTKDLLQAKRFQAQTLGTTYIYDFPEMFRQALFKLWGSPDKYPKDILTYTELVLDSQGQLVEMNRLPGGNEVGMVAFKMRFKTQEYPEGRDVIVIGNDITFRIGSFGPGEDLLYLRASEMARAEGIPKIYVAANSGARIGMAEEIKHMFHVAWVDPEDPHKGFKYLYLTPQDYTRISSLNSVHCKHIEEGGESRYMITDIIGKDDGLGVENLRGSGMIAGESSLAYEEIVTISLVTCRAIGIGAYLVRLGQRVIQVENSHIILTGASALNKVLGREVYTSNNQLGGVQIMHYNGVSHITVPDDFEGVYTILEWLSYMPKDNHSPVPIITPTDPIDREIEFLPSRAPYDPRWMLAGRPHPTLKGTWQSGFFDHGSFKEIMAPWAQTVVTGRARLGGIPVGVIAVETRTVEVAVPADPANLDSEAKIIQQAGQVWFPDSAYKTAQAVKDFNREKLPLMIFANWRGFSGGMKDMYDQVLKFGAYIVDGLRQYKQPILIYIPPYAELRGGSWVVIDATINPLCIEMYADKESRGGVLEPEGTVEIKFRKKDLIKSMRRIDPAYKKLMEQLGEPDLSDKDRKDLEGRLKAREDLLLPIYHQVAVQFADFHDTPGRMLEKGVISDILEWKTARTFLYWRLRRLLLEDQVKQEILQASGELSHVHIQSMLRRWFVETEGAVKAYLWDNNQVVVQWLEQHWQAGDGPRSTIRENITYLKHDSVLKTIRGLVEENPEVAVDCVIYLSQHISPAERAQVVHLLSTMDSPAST

Structure (SMILES)	IC50 (human (hACC2); Table 2a) [nM]	IC50 (human (hACC2); Table 2b, additional results) [nM]	MIC (C. albicans; [1]) [mg/L]	MIC (C. krusei; [2]) [mg/L]	MIC (C. parapsilosis; [3]) [mg/L]	IC50 (fungal (fACC2); Table 2a) [nM]	IC50 (fungal (fACC2); Table 2b, additional results) [nM]	MIC (C. albicans; [4]) [mg/L]	MIC (C. krusei; [5]) [mg/L]	MIC (C. parapsilosis; [6]) [mg/L]
COc1ccc(F)cc1[C@H](Cn1c(=O)n([C@H](C)C(=O)N2CCCC2)c(=O)c2c(C)c(-n3nccn3)sc21)OCC(C)(C)O [Compound I-175]	5 to 10	5 to 10	0.25 to 1 (≈ 0.407 to 1.63 µM)	2.01 to 4 (≈ 3.27 to 6.51 µM)	1.01 to 2 (≈ 1.64 to 3.25 µM)	0.4 to 1	0.3 to 1			
COc1ccc(F)cc1[C@H](Cn1c(=O)n([C@@H](C)C(=O)N2CCCC2)c(=O)c2c(C)c(-n3nccn3)sc21)OCC(C)(C)O [Compound I-176]	10 to 40	10 to 40	0.25 to 1 (≈ 0.407 to 1.63 µM)	2.01 to 4 (≈ 3.27 to 6.51 µM)	1.01 to 2 (≈ 1.64 to 3.25 µM)	1 to 5	1 to 5			
COc1ccccc1[C@@H](O)Cn1c(=O)n([C@@H](C)C(=O)N(C)C(C)C)c(=O)c2c(C)c(-n3nccn3)sc21 [Compound I-200]		10 to 40	2.01 to 4 (≈ 3.82 to 7.6 µM)	2.01 to 4 (≈ 3.82 to 7.6 µM)	2.01 to 4 (≈ 3.82 to 7.6 µM)		1 to 5			
COc1ccccc1[C@@H](O)Cn1c(=O)n([C@@H](C)C(=O)NC(C)C)c(=O)c2c(C)c(-n3nccn3)sc21 [Compound I-201]		10 to 40					0.3 to 1	2.01 to 4 (≈ 3.92 to 7.8 µM)	2.01 to 4 (≈ 3.92 to 7.8 µM)	1.01 to 2 (≈ 1.97 to 3.9 µM)
CCc1ccc(F)cc1[C@@H](O)Cn1c(=O)n(C(C)(C)C(N)=O)c(=O)c2c(C)c(-n3nccn3)sc21 [Compound I-202]		10 to 40	> 4.01	> 4.01	> 4.01		1 to 5			
COc1ccccc1[C@H](Cn1c(=O)n([C@@H](C)C(=O)N(C)C(C)C)c(=O)c2c(C)c(-n3nccn3)sc21)OCCO [Compound I-207]		5 to 10	1.01 to 2 (≈ 1.77 to 3.5 µM)	1.01 to 2 (≈ 1.77 to 3.5 µM)	1.01 to 2 (≈ 1.77 to 3.5 µM)		0.3 to 1			
COc1ccccc1[C@H](Cn1c(=O)n(C(C)(C)C(=O)NC(C)C)c(=O)c2c(C)c(-n3nccn3)sc21)OCCN1CC(F)C1 [Compound I-209]		> 40					1 to 5	1.01 to 2 (≈ 1.61 to 3.19 µM)	0.25 to 1 (≈ 0.398 to 1.59 µM)	0.25 to 1 (≈ 0.398 to 1.59 µM)
COc1ccc(F)cc1[C@H](Cn1c(=O)n(C(C)(C)C(=O)NC(C)C)c(=O)c2c(C)c(-n3nccn3)sc21)OCCC(=O)N(C)O [Compound I-219]		5 to 10					1 to 5	0.25 to 1 (≈ 0.387 to 1.55 µM)	0.25 to 1 (≈ 0.387 to 1.55 µM)	0.25 to 1 (≈ 0.387 to 1.55 µM)
COc1ccc(F)cc1[C@H](Cn1c(=O)n(C(C)(C)C(=O)NC(C)C)c(=O)c2c(C)c(-n3nccn3)sc21)OCCC(O)CO (stereo partly drawn) [Compound I-220]		10 to 40	0.25 to 1 (≈ 0.395 to 1.58 µM)	0.25 to 1 (≈ 0.395 to 1.58 µM)	0.25 to 1 (≈ 0.395 to 1.58 µM)		1 to 5			
COc1ccc(Cl)cc1[C@H](Cn1c(=O)n(C(C)(C)C(=O)NC2CCC2)c(=O)c2c(C)c(-n3nccn3)sc21)OC1CCOCC1 [Compound I-228]		5 to 10	0.25 to 1 (≈ 0.38 to 1.52 µM)	0.06 to 0.249 (≈ 0.0913 to 0.379 µM)	0.25 to 1 (≈ 0.38 to 1.52 µM)		1 to 5			
CCc1ccc(F)cc1[C@H](Cn1c(=O)n(C(C)(C)C(=O)NC2CCC2)c(=O)c2c(C)c(-n3nccn3)sc21)OC1CCOCC1 [Compound I-232]		5 to 10	2.01 to 4 (≈ 3.15 to 6.26 µM)	1.01 to 2 (≈ 1.58 to 3.13 µM)	1.01 to 2 (≈ 1.58 to 3.13 µM)		1 to 5			
COc1ccc(F)cc1[C@H](Cn1c(=O)n(C(C)(C)C(=O)NC(C)C)c(=O)c2c(C)c(-n3nccn3)sc21)O[C@H]1C[C@@H](OCc2ccccc2)C1 [Compound I-233]		10 to 40	0.25 to 1 (≈ 0.355 to 1.42 µM)	0.25 to 1 (≈ 0.355 to 1.42 µM)	0.25 to 1 (≈ 0.355 to 1.42 µM)		1 to 5			
Cc1c(-n2nccn2)sc2c1c(=O)n(C(C)(C)C(=O)NC(C)C)c(=O)n2C[C@H](OCCO)c1cc(F)ccc1OCc1ccccc1 [Compound I-237]		10 to 40	1.01 to 2 (≈ 1.52 to 3.01 µM)	1.01 to 2 (≈ 1.52 to 3.01 µM)	1.01 to 2 (≈ 1.52 to 3.01 µM)		1 to 5			
